# Calls of active or inactive are those of the source. The calls are words filed in the database; no cut-off is given here.
# Assays:
# [1] = tested on: K562; experiment: Induction of apoptosis in human K562 cells expressing wild type Bcr-Abl assessed as late apoptotic cells at 100 nM after 24 hrs using annexin-V/7-AAD staining by FACS analysis (reference value: 2.1%); assay type: functional
# [2] = Ratio of Cmax in Sprague-Dawley rat at 25 mg/kg, po to IC50 for Bcr-Abl T315I mutant (unknown origin); assay type: ADME, organism-based; conditions: in vivo
# [3] = tested on: K562; experiment: Cell cycle arrest in human K562 cells expressing wild type Bcr-Abl assessed as accumulation at G0/G1 phase after 24 hrs using propidium iodide staining by flow cytometry; assay type: functional, cell-based
# [4] = Cell cycle arrest in mouse BA/F3 cells expressing Bcr-Abl T315I mutant assessed as accumulation at G0/G1 phase at 500 nM after 24 hrs using propidium iodide staining by flow cytometry (reference value: 51.92%); assay type: functional, cell-based; conditions: BaF3
# [5] = tested on: K562; experiment: Antitumor activity against human K562 cells expressing wild type Bcr-Abl xenografted in mouse assessed as complete eradication of tumor at 10 mg/kg, po qd for 8 days; assay type: functional, organism-based
# [6] = tested on: BaF3; experiment: Induction of apoptosis in mouse BA/F3 cells expressing Bcr-Abl T315I mutant assessed as early apoptotic cells at 4 nM after 24 hrs using annexin-V/7-AAD staining by FACS analysis (reference value: 4.6%); assay type: functional
# [7] = tested on: Tyrosine-protein kinase ABL1 (Mus musculus), P00520 [T315I]; experiment: Inhibition of Bcr-Abl T315I mutant in mouse BA/F3 cells assessed as total protein level of STAT5 at 4 to 500 nM after 4 hrs by Western blot analysis; assay type: cell-based; conditions: BaF3
# [8] = tested on: Tyrosine-protein kinase ABL1 (Mus musculus), P00520 [T315I]; experiment: Inhibition of Bcr-Abl T315I mutant in mouse BA/F3 cells assessed as reduction of STAT5 phosphorylation at 4 to 500 nM after 4 hrs by Western blot analysis; assay type: cell-based; conditions: BaF3
# [9] = tested on: K562; experiment: Induction of apoptosis in human K562 cells expressing wild type Bcr-Abl assessed as late apoptotic cells at 0.8 nM after 24 hrs using annexin-V/7-AAD staining by FACS analysis (reference value: 2.1%); assay type: functional
# [10] = Cell cycle arrest in mouse BA/F3 cells expressing Bcr-Abl T315I mutant assessed as accumulation at G0/G1 phase at 4 nM after 24 hrs using propidium iodide staining by flow cytometry (reference value: 51.92%); assay type: functional, cell-based; conditions: BaF3
# [11] = tested on: BaF3; experiment: Antitumor activity against mouse BA/F3 cells expressing Bcr-Abl T315I mutant allografted in mouse assessed as tumor regression at 30 mg/kg, qd for 16 days; assay type: functional, organism-based
# [12] = tested on: BaF3; experiment: Induction of apoptosis in mouse BA/F3 cells expressing Bcr-Abl T315I mutant assessed as late apoptotic cells at 4 nM after 24 hrs using annexin-V/7-AAD staining by FACS analysis (reference value: 2.2%); assay type: functional
# [13] = tested on: BaF3; experiment: Induction of apoptosis in mouse BA/F3 cells expressing Bcr-Abl T315I mutant assessed as early apoptotic cells at 500 nM after 24 hrs using annexin-V/7-AAD staining by FACS analysis (reference value: 4.6%); assay type: functional
# [14] = Antiproliferative activity against mouse BA/F3 cells expressing wild type Bcr-Abl after 72 hrs by CCK-8 assay; assay type: functional, cell-based; conditions: BaF3, 72 h
# [15] = tested on: K562; experiment: Induction of apoptosis in human K562 cells expressing wild type Bcr-Abl assessed as late apoptotic cells at 20 nM after 24 hrs using annexin-V/7-AAD staining by FACS analysis (reference value: 2.1%); assay type: functional
# [16] = cells; conditions: Mus musculus, BaF3, 72 h
# [17] = tested on: K562; experiment: Induction of apoptosis in human K562 cells expressing wild type Bcr-Abl assessed as late apoptotic cells after 24 hrs using annexin-V/7-AAD staining by FACS analysis; assay type: functional, cell-based
# [18] = tested on: K562; experiment: Cell cycle arrest in human K562 cells expressing wild type Bcr-Abl assessed as accumulation at G0/G1 phase at 20 nM after 24 hrs using propidium iodide staining by flow cytometry (reference value: 64.03%); assay type: functional
# [19] = tested on: K562; experiment: Induction of apoptosis in human K562 cells expressing wild type Bcr-Abl assessed as late apoptotic cells at 4 nM after 24 hrs using annexin-V/7-AAD staining by FACS analysis (reference value: 2.1%); assay type: functional
# [20] = tested on: BaF3; experiment: Induction of apoptosis in mouse BA/F3 cells expressing Bcr-Abl T315I mutant assessed as late apoptotic cells at 20 nM after 24 hrs using annexin-V/7-AAD staining by FACS analysis (reference value: 2.2%); assay type: functional
# [21] = tested on: BaF3; experiment: Induction of apoptosis in mouse BA/F3 cells expressing Bcr-Abl T315I mutant assessed as early apoptotic cells after 24 hrs using annexin-V/7-AAD staining by FACS analysis; assay type: functional, cell-based
# [22] = tested on: Rattus norvegicus; experiment: AUC (0 to infinity) in Sprague-Dawley rat at 10 mg/kg, iv; assay type: ADME, organism-based; design: dose 10 mg/kg, time infinity, route intravenous; conditions: in vivo
# [23] = tested on: Tyrosine-protein kinase ABL1 (Mus musculus), P00520 [T315I]; experiment: Inhibition of Bcr-Abl T315I mutant phosphorylation in mouse BA/F3 cells after 4 hrs by Western blot analysis; assay type: cell-based; conditions: BaF3
# [24] = tested on: Rattus norvegicus; experiment: AUC (0 to infinity) in Sprague-Dawley rat at 25 mg/kg, po; assay type: ADME, organism-based; design: dose 25 mg/kg, time infinity, route oral; conditions: in vivo
# [25] = tested on: BaF3; experiment: Induction of apoptosis in mouse BA/F3 cells expressing Bcr-Abl T315I mutant assessed as early apoptotic cells at 20 nM after 24 hrs using annexin-V/7-AAD staining by FACS analysis (reference value: 4.6%); assay type: functional
# [26] = tested on: K562; experiment: Induction of apoptosis in human K562 cells expressing wild type Bcr-Abl assessed as early apoptotic cells at 20 nM after 24 hrs using annexin-V/7-AAD staining by FACS analysis (reference value: 7.3%); assay type: functional
# [27] = tested on: K562; experiment: Induction of apoptosis in human K562 cells expressing wild type Bcr-Abl assessed as early apoptotic cells after 24 hrs using annexin-V/7-AAD staining by FACS analysis; assay type: functional, cell-based
# [28] = target: Bcr/Abl fusion protein (Homo sapiens, UniProt P00519, T315I); assay type: protein assay
# [29] = target: Bcr/Abl fusion protein (Homo sapiens, UniProt P00519); assay type: protein assay
# Description: Inhibition of wild type Bcr-Abl (unknown origin) using Tyr2 peptide substrate after 2 hrs by FRET-based Z'-lyte assay
# [30] = tested on: BaF3; experiment: Induction of apoptosis in mouse BA/F3 cells expressing Bcr-Abl T315I mutant assessed as late apoptotic cells at 500 nM after 24 hrs using annexin-V/7-AAD staining by FACS analysis (reference value: 2.2%); assay type: functional
# [31] = tested on: K562; experiment: Antitumor activity against human K562 cells expressing wild type Bcr-Abl xenografted in mouse assessed as sign of tumor recurrence at 10 mg/kg, po qd for 16 days measured after 7 days of last dose; assay type: functional, organism-based
# [32] = tested on: BaF3; experiment: Induction of apoptosis in mouse BA/F3 cells expressing Bcr-Abl T315I mutant assessed as late apoptotic cells after 24 hrs using annexin-V/7-AAD staining by FACS analysis; assay type: functional, cell-based
# [33] = tested on: K562; experiment: Cell cycle arrest in human K562 cells expressing wild type Bcr-Abl assessed as accumulation at G0/G1 phase at 0.8 nM after 24 hrs using propidium iodide staining by flow cytometry (reference value: 64.03%); assay type: functional
# [34] = Cell cycle arrest in mouse BA/F3 cells expressing Bcr-Abl T315I mutant assessed as accumulation at G0/G1 phase at 20 nM after 24 hrs using propidium iodide staining by flow cytometry (reference value: 51.92%); assay type: functional, cell-based; conditions: BaF3
# Tyrosine-protein kinase ABL1 (Mus musculus), P00520 [T315I], sequence (P00520 whole entry T315I): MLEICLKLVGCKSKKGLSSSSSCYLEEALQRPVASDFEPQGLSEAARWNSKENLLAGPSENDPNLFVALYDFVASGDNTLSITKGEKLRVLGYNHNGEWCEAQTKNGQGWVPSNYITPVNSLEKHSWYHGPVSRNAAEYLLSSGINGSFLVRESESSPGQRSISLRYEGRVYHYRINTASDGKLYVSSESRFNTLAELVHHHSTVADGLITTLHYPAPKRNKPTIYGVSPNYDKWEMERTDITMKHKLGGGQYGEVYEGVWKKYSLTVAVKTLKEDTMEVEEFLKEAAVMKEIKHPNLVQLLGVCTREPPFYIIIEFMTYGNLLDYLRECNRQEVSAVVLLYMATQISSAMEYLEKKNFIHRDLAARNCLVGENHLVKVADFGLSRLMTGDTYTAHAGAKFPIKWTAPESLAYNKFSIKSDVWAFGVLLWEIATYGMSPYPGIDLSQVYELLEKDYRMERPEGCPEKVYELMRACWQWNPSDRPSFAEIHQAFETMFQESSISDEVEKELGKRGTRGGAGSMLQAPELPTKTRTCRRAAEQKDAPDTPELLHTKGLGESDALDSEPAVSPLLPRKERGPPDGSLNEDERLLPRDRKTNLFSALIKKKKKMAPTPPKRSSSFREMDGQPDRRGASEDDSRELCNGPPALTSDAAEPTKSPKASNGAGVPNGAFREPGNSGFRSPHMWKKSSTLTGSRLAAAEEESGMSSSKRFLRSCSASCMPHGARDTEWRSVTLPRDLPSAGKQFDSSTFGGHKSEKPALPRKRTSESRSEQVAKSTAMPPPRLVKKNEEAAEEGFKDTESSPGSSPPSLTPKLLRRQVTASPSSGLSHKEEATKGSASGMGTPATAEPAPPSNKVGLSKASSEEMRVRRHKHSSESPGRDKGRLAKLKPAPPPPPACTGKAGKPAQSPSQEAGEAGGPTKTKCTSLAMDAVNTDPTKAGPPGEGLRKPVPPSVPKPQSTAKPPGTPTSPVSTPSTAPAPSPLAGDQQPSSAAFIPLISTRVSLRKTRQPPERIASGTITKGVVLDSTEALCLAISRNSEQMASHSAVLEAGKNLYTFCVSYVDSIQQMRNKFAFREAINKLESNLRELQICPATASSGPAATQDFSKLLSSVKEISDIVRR
structure (smiles),measurement,setting,value
Cc1cn(-c2cc(NC(=O)c3ccc(C)c(C#Cc4cnc(NC5CC5)nc4)c3)cc(C(F)(F)F)c2)cn1,Activity,[1],9%
same,Ratio,[2],1333
same,Activity,[3],Dose-dependent effect
same,Activity,[4],70.2%
same,Activity,[5],Active
same,Activity,[6],5.8%
same,inhibition,[7],inactive
same,inhibition,[8],Active
same,Activity,[9],1.7%
same,Activity,[10],52.4%
same,Activity,[11],Active
same,Activity,[12],3.3%
same,Activity,[13],10.2%
same,IC50,[14],2 nM
same,Activity,[15],2.5%
same,IC50,[16],50 nM
same,Activity,[17],Dose-dependent effect
same,Activity,[18],87.03%
same,Activity,[19],2%
same,Activity,[20],4.1%
same,Activity,[21],Dose-dependent effect
same,AUC,[22],285187 µg/L/h
same,inhibition,[23],Dose-dependent effect
same,AUC,[24],251684 µg/L/h
same,Activity,[25],6.6%
same,Activity,[26],14.2%
same,Activity,[27],Dose-dependent effect
same,IC50,[28],9 nM
same,IC50,[29],5 nM
same,Activity,[30],4.3%
same,Activity,[31],inactive
same,Activity,[32],Dose-dependent effect
same,Activity,[33],67.61%
same,Activity,[34],58.9%
